{"source": "patent US20210401957A1", "about": "“ROBO1 CAR-NK CELL CARRYING SUICIDE GENE, PREPARATION METHOD AND APPLICATION THEREOF” (Asclepius (Suzhou) Technology Company Group Co., Ltd., priority 2019, published 2021)", "tested_on": "ROBO1-iCaspase9CAR-NK cells", "assay": "Apoptosis of ROBO1-iCaspase9 CAR-NK cells induced by medicament AP1903", "type": "cell-based, human", "details": "within 24 hours", "procedure": "Different amounts of medicament AP1903 were respectively added into the ROBO1 CAR-NK cells carrying the suicide gene (ATCG427B-1F7 and 2D5) after screening in Example 6 to test the effect thereof on apoptosis of the ROBO1 CAR-NK cells carrying the suicide gene (denoted with ATCG427B). Meanwhile, the medicament AP1903 was added into the ROBO1 CAR-NK cells as control, and divided into three experimental groups, i.e., cells treated by the medicament AP1903 with different concentrations (0 nM, 10 nM and 50 nM) for 2 hours, 4 hours and 24 hours. The experimental groups respectively treated for 4 hours and 24 hours were continuously cultured with fresh medium, and the cell viability was counted three days later, and the results were shown in FIG. 12. In addition, the 0 nM and 10 nM experimental groups treated for 4 hours were cultured in fresh medium for 24 hours and then photographed, and the results were shown in FIG. 13."}
{"smiles": "CC[C@H](C(=O)N1CCCC[C@H]1C(=O)O[C@H](CCc1ccc(OC)c(OC)c1)c1cccc(OCC(=O)NCCNC(=O)COc2cccc([C@@H](CCc3ccc(OC)c(OC)c3)OC(=O)[C@@H]3CCCCN3C(=O)[C@@H](CC)c3cc(OC)c(OC)c(OC)c3)c2)c1)c1cc(OC)c(OC)c(OC)c1", "note": "[AP1903]", "values": [{"measurement": "effect of AP1903 on the control cells (printed as ROBO1-iCaspase9CAR-NK cells)", "result": "has no effect"}, {"measurement": "killing of ROBO1-iCaspase9CAR-NK cells by AP1903", "result": "can effectively kill"}]}
